Measured values as given in US20240174691A1, “PYRIMIDINE-FUSED CYCLIC COMPOUND, PREPARATION METHOD THEREFOR AND USE THEREOF” (GENFLEET THERAPEUTICS (SHANGHAI) INC., priority 2021, published 2024).

Tests used:
Type in all cases: cell-based, human
[1] = tested on: p-ERK in AGS cells containing the KRAS G12D mutation; test: Cell p-ERK assay (HTRF, Advance ERK phospho-T202/Y204 kit); conditions: 3 hours incubation with compound
Method: AGS was purchased from ATCC; catalog No: CRL-1739; F12K was purchased from Gibco; catalog No: 21127-022; FBS was purchased from Gibco; catalog No: 10099-141C; trypsin (containing EDTA) was purchased from Gibco; catalog No: 25200-072; DMSO was purchased from VWRAMMESCO; catalog No: 0231-500ML; 96-well cell culture plates were purchased from Corning; catalog No: 3599; opaque 96-well plates with a white background were purchased from Cisbio; catalog No: 66PL96025; Advance ERK phospho-T202/Y204 kit was purchased from Cisbio; catalog No: 64AERPEH; cell counters were purchased from CHEMOMETEC; model No: NC-200; microplate reader was purchased from PerkinElmer; model No: Envison.
AGS is an endogenous human gastric adenocarcinoma cell line containing the KRAS^G12D mutation, cultured in F12K+10% FBS medium. On the first day of the experiment, cells in the logarithmic growth phase were taken, digested with trypsin (containing EDTA), collected, and counted. Approximately 20000 cells/well were seeded in a 96-well cell culture plate and cultured overnight in an incubator with 5% CO2. 1000× stock solutions of compounds at a 3.16-fold concentration gradient were prepared using DMSO, and diluted 200-fold into a 5× compound stock solution using the medium described above. The 5× compound stock solution was added to each cell culturing well the day after cell seeding at a final concentration of 1× and a DMSO content of 0.1%. DMSO was used as an experimental control. After the compound was added and the incubation was kept for 3 hours, the medium in the culture wells was removed. 50 μl of Cell lysis solution (from Advance ERK phospho-T202/Y204 kit, the same below) was added to each well, mixed well, and incubated for 30 minutes and then 16 μl of the mixed solution was transferred to an opaque 96-well plate with a white background. In addition, 16 μl of cell lysis solution was added to a well as a blank well. After transferring, 4 μl of p-ERK HTRF antibody mixture (from Advance ERK phospho-T202/Y204 kit) was added to each well. After incubation for 4 hours, HTRF fluorescence value (RLU) was read by a microplate reader, and p-ERK level inhibition rate (IR (%)=(RLU control−RLU compound)/(RLU control−RLU blank)×100%) of the compounds was calculated. The concentration of the compounds and corresponding cell p-ERK level inhibition rate were fitted using Prism 8 four-parameters method, and the IC50 value was calculated.

AsPC-1 cells (KRAS G12D) = test: Cell proliferation inhibition assay, 3D cell model (CellTiter-Glo 3D), AsPC-1; conditions: AsPC-1 3D sphere plate, 5 days incubation
Source text: (§1) AsPC-1 was purchased from ATCC; catalog No: CRL-1682; AGS was purchased from ATCC; catalog No: CRL-1739; RPMI1640 was purchased from Gibco; catalog No: 11875-093 2235123; F12K was purchased from Gibco; catalog No: 21127-022; FBS was purchased from Gibco; catalog No: 10099-141C; trypsin (containing EDTA) was purchased from Gibco; catalog No: 25200-072; CellTiter Glo-3D was purchased from Progema; catalog No: G9683; 384-well sphere plates were purchased from Corning; catalog No: 3830; opaque 384-well plates with a white background were purchased from Corning; catalog No: 3570; cell counters were purchased from CHEMOMETEC; model: NC-200; microplate reader was purchased from PerkinElmer; model: Envison;
(§2) AsPC-1 is an endogenous human pancreatic cancer cell containing KRAS^G12D mutation, cultured in RPMI-1640 medium containing 10% FBS; AGS is a human gastric cancer cell line containing KRAS^G12D, cultured in F-12K medium containing 10% FBS. Cells in the logarithmic growth phase were taken, digested with trypsin (containing EDTA), collected, and counted. 800 AsPC-1 cells/well or 400 AGS cells/well, respectively, were seeded in a 384-well sphere plate and cultured overnight at 5% CO2 to establish a 3D cell model. 1000× stock solutions of compounds at a 3.16-fold concentration gradient of were prepared using DMSO, diluted 100-fold into a 10× compound stock solution using the medium described above. The 10× compound stock solution was added to each cell on 2nd day after cell seeding at a final concentration of 1× and a DMSO content of 0.1%. DMSO was used as an experimental control, and the medium was used as blank. After the addition of the compounds, the cells were incubated for 5 days. 30 μl of CellTiter-Glo work solution was added to each well, mixed well, and incubated for 30 minutes. After standing at room temperature for 30 minutes, 40 μl of the mixed solution was transferred to an opaque 384-well plate with a white clear bottom. Luminescence chemiluminescence value was read by a microplate reader, and the cell proliferation inhibition rate (IR (%)=(RLU control−RLU compound)/(RLU control−RLU blank)×100%) was calculated. The gradiently diluted concentration of the compounds and corresponding cell proliferation inhibition rate were fitted using XLFit four-parameters method, and the IC50 value was calculated.

AGS cells (KRAS G12D) = test: Cell proliferation inhibition assay, 3D cell model (CellTiter-Glo 3D), AGS; conditions: AGS 3D sphere plate, 5 days incubation
Source text: as §1, §2

CCc1cccc2cc(O)cc(-c3cc4nc(OC[C@@]56CCCN5C[C@H](F)C6)nc5c4c(n3)OC[C@@H]3[C@@H]4CC[C@H](CN53)N4)c12 [Z2, 5-ethyl-4-((5aS,6S,9R)-12-(((2R,7aS)-2-fluorotetrahydro-1H-pyrrolizin-7a(5H)-yl)methoxy)-5a,6,7,8,9,10-hexahydro-5H-4-oxa-3,10a,11,13,14-pentaaza-6,9-methanonaphtho[1,8-ab]hepten-2-yl)naphthalen-2-ol]
IC50 ([1]; Homo sapiens): 10.7 nM
IC50 (AsPC-1 cells (KRAS G12D); Homo sapiens, ASPC1, 120 h): 127 nM
IC50 (AGS cells (KRAS G12D); Homo sapiens, 120 h): 10.3 nM

C#Cc1c(F)ccc2cc(O)cc(-c3nc4c5c(nc(OC[C@@]67CCCN6C[C@H](F)C7)nc5c3F)N3C[C@H]5CC[C@H](N5)[C@H]3CO4)c12 [Z131-1]
IC50 ([1]; Homo sapiens): 1.58 nM
IC50 (AsPC-1 cells (KRAS G12D); Homo sapiens, ASPC1, 120 h): 32.8 nM
IC50 (AGS cells (KRAS G12D); Homo sapiens, 120 h): 2.53 nM

CCc1cccc2cc(O)cc(-c3nc4c5c(nc(OC[C@@]67CCCN6C[C@H](F)C7)nc5c3F)N3C[C@H]5CC[C@H](N5)[C@H]3CO4)c12 [Z140-1, 5-ethyl-4-((5aS,6S,9R)-1-fluoro-12-(((2R,7aS)-2-fluorotetrahydro-1H-pyrrolizin-7a(5H)-yl)methoxy)-5a,6,7,8,9,10-hexahydro-5H-4-oxa-3,10a,11,13,14-pentaaza-6,9-methanonaphtho[1,8-ab]hepten-2-yl)naphthalen-2-ol]
IC50 [1]: 2.85 nM
IC50 (AsPC-1 cells (KRAS G12D)): 21.1 nM
IC50 (AGS cells (KRAS G12D)): 4 nM

C#Cc1cccc2cccc(-c3nc4c5c(nc(OC[C@@]67CCCN6C[C@H](F)C7)nc5c3F)N3C[C@H]5CC[C@H](N5)[C@H]3CO4)c12 [Z350, (5aS,6S,9R)-2-(8-ethynaphthalen-1-yl)-1-fluoro-12-(((2R,7aS)-2-fluorotetrahydro-1H-pyrrolizin-7a(5H)-yl)methoxy)-5a,6,7,8,9,10-hexahydro-5H-4-oxo-3,10a,11,13,14-pentaaza-6,9-methanonaphtho[1,8-ab]heptene]
IC50 ([1]; Homo sapiens): 47 nM
IC50 (AsPC-1 cells (KRAS G12D); Homo sapiens, ASPC1, 120 h): 203 nM
IC50 (AGS cells (KRAS G12D); Homo sapiens, 120 h): 181 nM

CCc1cccc2cc(O)cc(-c3cc4nc(OC[C@@]56CCCN5C[C@H](F)C6)nc5c4c(c3Cl)OC[C@@H]3[C@@H]4CC[C@H](CN53)N4)c12 [Z381, 4-((5aS,6S,9R)-3-chloro-13-((2R,7aS)-2-fluorotetrahydro-1H-pyrrolizin-7a(5H)-ylmethoxy)-5a,6,7,8,9,10-hexahydro-5H-6,9-epiminoazepino[2′,1′:3,4][1, 4]oxazepino[5,6,7-de]quinazolin-2-yl)-5-ethylnaphthalen-2-ol]
IC50 ([1]; Homo sapiens): 436 nM
